Laboratory results: ChEMBL document CHEMBL1201862, “PubChem BioAssay data set” (2004)
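1) Cells in 96-well plates. 2) Compound, 48 h, 5 concentrations. 3) Linear interpolation between surrounding doses. 4) Unreached endpoint = highest concentration. GI50 = concentration required for 50% inhibition of growth.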 The source made the active and inactive calls. Rule as the data show it: active = GI50 up to about 1.1 µM and inactive = higher.

How the values were obtained:
Test in all cases: growth of human tumour cells (NCI), 48 h
A498 = system: A498
SN12C = system: SN12C
U-251 = system: U-251
MDA-MB-231 = system: MDA-MB-231
Hs-578T = system: Hs-578T
HCC 2998 = system: HCC 2998
SW-620 = system: SW-620
HOP-62 = system: HOP-62
OVCAR-3 = system: OVCAR-3
Malme-3M = system: Malme-3M
PC-3 = system: PC-3
ACHN = system: ACHN
SF-295 = system: SF-295
SK-MEL-28 = system: SK-MEL-28
SK-MEL-5 = system: SK-MEL-5
HOP-92 = system: HOP-92
RXF 393 = system: RXF 393
LOX IMVI = system: LOX IMVI
CAKI-1 = system: CAKI-1
SF-268 = system: SF-268

Measured: GI50

CC[C@@]1(O)C(=O)OCc2c1cc1n(c2=O)Cc2c-1nc1ccc(O)cc1c2CC[Si](C)(C)C
active: A498 0.00383 µM | SN12C < 0.001 µM | U-251 < 0.001 µM | MDA-MB-231 0.187 µM | Hs-578T 0.681 µM | HCC 2998 0.0174 µM | SW-620 0.00438 µM | HOP-62 < 0.001 µM | OVCAR-3 0.0247 µM | Malme-3M 0.016 µM | PC-3 0.141 µM | ACHN < 0.001 µM | SF-295 0.00131 µM | SK-MEL-28 0.0402 µM | SK-MEL-5 0.00116 µM | HOP-92 0.0682 µM | RXF 393 0.00279 µM | LOX IMVI < 0.001 µM | CAKI-1 < 0.001 µM | SF-268 < 0.001 µM

c1ncc(C23C4C5C6C4C2C6C53)[nH]1 (stereo not given)
inactive: A498 > 100 µM | SN12C > 100 µM | U-251 > 100 µM | MDA-MB-231 > 100 µM | Hs-578T > 100 µM | HCC 2998 > 100 µM | SW-620 > 100 µM | HOP-62 > 100 µM | OVCAR-3 > 100 µM | Malme-3M > 100 µM | PC-3 > 100 µM | ACHN > 100 µM | SF-295 > 100 µM | SK-MEL-28 > 100 µM | SK-MEL-5 > 100 µM | HOP-92 > 100 µM | RXF 393 > 100 µM | LOX IMVI > 100 µM | CAKI-1 > 100 µM | SF-268 > 100 µM

CC(NNC(=O)c1cc[n+]([BH2-]C#N)cc1)c1ccc(Cl)c(Cl)c1 (stereo not given)
inactive: A498 33.7 µM | SN12C 34.5 µM | U-251 40.2 µM | MDA-MB-231 24.8 µM | Hs-578T 28.4 µM | HCC 2998 42.6 µM | SW-620 45.1 µM | HOP-62 45 µM | OVCAR-3 26.9 µM | Malme-3M 30.9 µM | PC-3 22.9 µM | ACHN 24.3 µM | SF-295 29.6 µM | SK-MEL-28 40.8 µM | SK-MEL-5 19.7 µM | HOP-92 20.6 µM | RXF 393 38.5 µM | LOX IMVI 28.9 µM | CAKI-1 18.1 µM | SF-268 39.6 µM

CC(C)=CCC/C(C)=C/CC/C(C)=C/CSc1ccc(Cl)cc1C(=O)O
inactive: A498 19.8 µM | SN12C 26.3 µM | U-251 17.5 µM | MDA-MB-231 27 µM | Hs-578T 23.2 µM | HCC 2998 20.5 µM | SW-620 22 µM | HOP-62 14.9 µM | OVCAR-3 17 µM | Malme-3M 19.2 µM | PC-3 16.2 µM | ACHN 18.5 µM | SF-295 17.4 µM | SK-MEL-28 17.3 µM | SK-MEL-5 23.4 µM | HOP-92 22.2 µM | RXF 393 24.3 µM | LOX IMVI 18.1 µM | CAKI-1 25.1 µM | SF-268 17.9 µM

O=C1O[C@H]2[C@H](O)[C@@H](OC(=O)c3cc(O)c(O)c4c3[C@@H]3C1=CC(=O)C(O)(O)C3(O)O4)[C@H](OC(=O)c1cc(O)c(O)c(O)c1)O[C@@H]2CO (stereo not given in full) [FUROSIN]
inactive: A498 > 100 µM | SN12C > 100 µM | U-251 > 100 µM | MDA-MB-231 > 100 µM | Hs-578T > 100 µM | HCC 2998 > 100 µM | SW-620 > 100 µM | HOP-62 > 100 µM | OVCAR-3 33.2 µM | Malme-3M > 100 µM | PC-3 > 100 µM | ACHN 41.6 µM | SF-295 71.6 µM | SK-MEL-28 > 100 µM | SK-MEL-5 42.5 µM | HOP-92 42 µM | RXF 393 > 100 µM | LOX IMVI 48 µM | CAKI-1 > 100 µM | SF-268 76.4 µM
